From patent US20110091587A1, “PHASE II DETOXIFICATION AND ANTIOXIDANT ACTIVITY” (JOSLIN DIABETES CENTER, INC., priority 2007, published 2011) come the findings set out here.

Molecules are shown by their SMILES.

In this test the test system is GCS-1::GFP. Kind of test: GCS-1::GFP reporter expression in the intestine of transgenic worms. It is filed as in vivo, C. elegans. From the text: A nucleic acid encoding the GCS-1 promoter (as described in An and Blackwell, 2003, Genes & Dev., 17, 1882-1893) was fused with a sequence encoding green fluorescent protein (GFP) to prepare a reporter construct (gcs-1::GFP) using standard molecular biology techniques. This fusion construct gene was transferred into C. elegans (An and Blackwell, 2003, Genes & Dev., 17, 1882-1893; Mello, et al., EMBO J. 1991. 10(12):3959-70), and the obtained transformed C. elegans were used in the experiment. Under normal, less oxidative stress conditions, the gcs-1::GFP construct is expressed in the pharynx area and ASI of C. elegans, where fluorescence emission of GFP can be measured.
Experiments were conducted to study the influence of the various extracts prepared in Example 1 on expression of the GCS-1::GFP reporter construct (described in Example 2) in C. elegans, following the method according to An and Blackwell, 2003, Genes & Dev., 17, 1882-1893.
Before each experiment, approximately 20 L4 stage worms carrying the GCS-1::GFP reporter construct transgene were picked to NGM plates (a type of agar media, see Brenner, Genetics, 1974 May; 77(1):71-94), containing OP50 bacteria (an E. coli strain, food for C. elegans), and were allowed to grow for 2 to 3 days. The worms were transferred together with a saline medium (M9) for treatment with the test materials to a microcentrifuge tube by flooding the NGM plate surface with the saline medium (M9). The microcentrifuge tube was then centrifuged, and a supernatant was removed. The same procedure was repeated again to wash the worms. This washing removed the bacteria which had been given as food.
Once the worms were washed, they were added for incubation in the specified test materials at the specified concentrations for the following amounts of time. Initially, incubation time was 30 minutes, and was later extended to include 60, 90, and 120 minutes. After treatment for said given times, the worms were washed in M9 at least twice, transferred back to an NGM plate containing bacteria, and allowed to recover for about 30 minutes. The worms were then mounted on slides, and scored for GFP expression levels under a microscope. GFP expression levels in the intestines of each worm were evaluated based on three scores; high, medium, and low expressions. A high score was given for worms with GFP expression through out the intestine. GFP expression midway up the intestine was scored medium. A low score was given to worms with very little or no GFP expression in their intestine. […]

[1] abbreviates: comparison of GCS-1::GFP, Δ2 and Δ2mut3 worms.

Take `C[S+]([O-])CCCCN=C=S` (stereo not shown) [sulforaphane]: under setting [1], the “regulation of GCS-1::GFP expression by SKN-1” value is reported as “not partially regulated by SKN-1” and the “site of GCS-1::GFP expression” value is recorded as “about half of GCS-1::GFP expression was seen in the pharynx”. Also, where the note is “sulforaphane 1 mg/mL, after 30, 60 or 90 minutes of incubation”, the “effect on GCS-1::GFP expression” value is “no effect was seen”. Where the note is “sulforaphane 1 mg/mL, longer incubation”, the “incubation time at which effect was first seen” value was found to be 6 h.
